In patent US20240350430A1, “GROWTH INHIBITOR OF METASTATIC HUMAN PROSTATE CANCER CELLS” (Watanabe Oyster Laboratory Co., Ltd., priority 2021, published 2024) one finds migration and invasion data, which are given here for 1 compound.

For one assay, the system named is DU-145 cells. Nature of the assay: Cell migration scratch assay, DU-145 cells. Format: cell-based, human. Particulars: DHMBA 1, 10, 100, or 1000 μM, 48 hours. As for the experimental part:
The migration of the prostate cancer PC-3 and DU-145 cells was examined using a scratch assay. The PC-3 and DU-145 cells (the cell number of 2×10^5/in 1 ml of a culture fluid per hole using a 24-hole plate) were cultured in a DMEM culture fluid containing 10% of FBS, 1% of P/S, and 1% of fungizone under 5% of CO2, at 37° C., for 48 hours, and a straight line scratch was performed using a pipette tip (200 μl) when the cells reached confluence. Free cells were washed with PBS to be removed, the above-described culture fluid (containing 0.1, 1, 10, 100, or 1000 μM of the DHMBA) was added, and the cells were cultured for 48 hours. After the culture, intervals of cell-free parts were measured.
The PC-3 and DU-145 cells (the cell number of 2× 10^5/1 ml of a culture fluid per hole using a 24-hole plate) were cultured under 5% of CO2, at 37° C., for 48 hours in a DMEM culture fluid containing 10% of FBS, 1% of P/S, and 1% of fungizone, and a straight line scratch was performed using a pipette tip (200 μl) when the cells reached confluence. Free cells were washed with PBS to be removed, the above-described culture fluid (containing 0.1, 1, 10, 100, or 1000 μM of the DHMBA) was added, and the cells were cultured for 48 hours. After the culture, intervals of cell-free parts were measured. […]

Another assay concerns PC-3 cells. Nature of the assay: Cell invasion, Transwell chambers with Matrigel, PC-3 cells. To be noted: DHMBA 1, 10, or 100 μM, 24 hours. The class given is cell-based, human. As for the experimental part: The cell invasion activity of the prostate cancer PC-3 and DU-145 cells was measured using Transwell chambers (the catalogue number CLS3464-48EA of Corning, Life Sciences, USA). A chamber was placed in each well of the 24-hole plate. 50 μl of Matrigel (Corning Life Sciences, Cat. No. 356230, USA) was added to the upper surface of the chambers. After drying the gel, 500 μl of a suspension of the PC-3 or DU-145 cells (the cell number of 2.5×10^4/ml, the DMEM not containing FBS) was added to the upper surface of the gel. This cell suspension contained the DHMBA (0, 1, 10, or 100 μM). After the addition of the cell suspension to the chambers, it was incubated for one hour to cause the cells to adhere. 0.75 ml of the culture fluid not containing the FBS and a culture fluid containing 10% of FBS were added to the lower surface of the chambers. The cells on the plate were cultured under 5% of CO2, 95% of air, at 37° C., for 24 hours. […] After the drying, the number of the stained cells was counted by the microscope (Olympus MTV-3, Olympus Corporation, Tokyo, Japan). […]
The cell invasion activities of the prostate cancer PC-3 and DU-145 cells were measured using the Transwell chambers. […] After the drying, the number of the stained cells was counted by the microscope (Olympus MTV-3, Olympus Corporation, Tokyo, Japan). […]

Turning to `COc1c(O)cc(CO)cc1O` [DHMBA, 3,5-dihydroxy-4-methoxybenzyl alcohol], the migration entry in the assay with DU-145 cells is on record as “significantly inhibited”. Moreover, the invasion entry with PC-3 cells was “significantly inhibited”.
